Measurements reported in article PMC12040169 (PLOS Biology, 2025).

Test: in vitro
Settings: human, hela cells, % viability

| Compound | viability at 28.5 h, 10 µM [%] |
| --- | --- |
| COCc1cccc(-c2nccnc2OCc2ccccn2)c1 [CBK106953] | 96 |
| COCc1cccc(-c2nccnc2OCC(=O)OC)c1 [CBK106976] | 98.7 |
| Cc1ccc(-c2nccnc2OCc2ccccn2)c(C)c1 [CBK106979] | 90.7 |
| Cc1ccc(-c2nccnc2OC2CCCCC2)c(C)c1 [CBK106983] | 94 |
| CC(=O)Nc1ccc(CCOc2nccnc2-c2ccc(C)cc2C)cc1 [CBK106985] | 96.7 |
| Cc1ccc(-c2nccnc2OCCOc2ccccc2)c(C)c1 [CBK106991] | 86.1 |
| O=C1CCCN1CCOc1nccnc1-c1ccccc1Cl [CBK106999] | 100 |
| COc1nccnc1-c1ccccc1Cl [CBK107000] | 100 |
| Clc1ccccc1-c1nccnc1OC(c1ccccc1)c1ccccc1 [CBK107002] | 92.9 |
| Clc1ccccc1-c1nccnc1OCCOc1ccccc1 [CBK107011] | 95.9 |
| COc1ccc(-c2nccnc2OC)c(OC)c1 [CBK107039] | 114 |
| c1ccc(COc2nccnc2-c2cccs2)nc1 [CBK107055] | 107 |
| COc1cccc(Oc2nccnc2-c2cccs2)c1 [CBK107059] | 91.6 |
| Cn1cc(-c2nccnc2OCc2ccccn2)cn1 [CBK107067] | 97.2 |
| COc1nccnc1-c1cnn(C)c1 [CBK107069] | 89.6 |
| COc1cccc(Oc2nccnc2-c2cnn(C)c2)c1 [CBK107071] | 98 |
| Cn1cc(-c2nccnc2OC2CCCCC2)cn1 [CBK107072] | 99.7 |
| Cn1cc(-c2nccnc2OCCn2cccc2)cn1 [CBK107079] | 88.6 |
| Cn1cc(-c2nccnc2OCCOc2ccccc2)cn1 [CBK107080] | 94.9 |
| O=C1c2ccccc2C(=O)N1CCOc1nccnc1-c1cnn(Cc2ccccc2)c1 [CBK107089] | 102 |
| COc1nccnc1-c1cnn(Cc2ccccc2)c1 [CBK107090] | 101 |
| c1ccc(Cn2cc(-c3nccnc3OC3CCCCC3)cn2)cc1 [CBK107092] | 93 |
| c1ccc(Cn2cc(-c3nccnc3OCCn3ccnc3)cn2)cc1 [CBK107102] | 95.5 |

| Compound | viability at 28.5 h, 10 µM [%] |
| --- | --- |
| Clc1ccc(-c2nccnc2OCc2ccccn2)cc1Cl [CBK107108] | 94.7 |
| CCOC(=O)c1ccc(-c2nccnc2Oc2cccc(OC)c2)cc1 [CBK107115] | 81 |
| O=C(NCCCNC1CCc2[nH]c3ccccc3c2C1)c1cccc(Br)c1 (stereo not shown) [CBK107130T] | 86.9 |
| CC1CCCCN1CCCNC(=O)c1ccc(-c2nc(-c3ccc(C#N)cc3)cnc2N)cc1 (stereo not shown) [CBK107139] | 111 |
| CC(C)Nc1cc(SCc2ccc(F)cc2)ncn1 [CBK107158] | 93.9 |
| CC(C)Nc1cc(SCc2cccc(C(F)(F)F)c2)ncn1 [CBK107161] | 88.2 |
| Clc1ccc(CSc2nccnc2N2CCCC2)cc1 [CBK107177] | 95.9 |
| FC(F)(F)c1cccc(CSc2cc(N3CCCC3)ncn2)c1 [CBK107184] | 91.1 |
| FC(F)(F)c1nc2ccccc2nc1SC1CCCCC1 [CBK107205] | 97.2 |
| CNC(=O)CSc1nc2ccccc2nc1C(F)(F)F [CBK107206] | 95.9 |
| C[C@@H]1CN[C@@H](C)CN1Cc1cc(NS(=O)(=O)c2ccccc2Cl)cc2ccoc12 [CBK107211T] | 98.6 |
| Fc1ccc(CCN2CCCCC2c2cc3ccccc3[nH]2)cc1 (stereo not shown) [CBK107227T] | 89.6 |
| O=C(c1[nH]nc(O)c1Cc1c(Cl)cccc1Cl)N1CCOCC1 [CBK107228] | 101 |
| CCCc1n[nH]c(-c2cc(C(F)(F)F)ccc2F)c1C(=O)OCC [CBK107231] | 94.6 |
| O=C(Nc1cccnc1)c1cc2cc(Cl)ccc2[nH]1 [CBK107261] | 88.7 |
| O=C(NCc1ccccn1)c1cc2cc(Cl)ccc2[nH]1 [CBK107265] | 88.2 |
| CN1CCN(C(=O)c2cc(C(C)(C)C)nn2Cc2ccc(Cl)cc2Cl)CC1 [CBK107285] | 109 |
| CN(C)CCCNC(=O)c1cc(C(C)(C)C)nn1Cc1ccc(Cl)cc1Cl [CBK107286] | 102 |
| CC(C)(C)c1cc(C(=O)NCc2ccccn2)n(Cc2ccc(Cl)cc2Cl)n1 [CBK107288] | 101 |
| CC(C)(N)CNC(=O)c1cc(C(C)(C)C)nn1Cc1ccc(Cl)cc1Cl [CBK107296] | 95.6 |
| CN(C)CCNC(=O)Cc1csc(-c2ccc(Cl)cc2)n1 [CBK107299] | 96.2 |
| CN1CCN(C(=O)Cc2csc(-c3ccc(Cl)cc3)n2)CC1 [CBK107301] | 104 |
| O=C(Cc1csc(-c2ccc(Cl)cc2)n1)NCCN1CCCC1 [CBK107306] | 90 |

| Compound | viability at 28.5 h, 10 µM [%] |
| --- | --- |
| O=C(Cc1csc(-c2ccc(Cl)cc2)n1)N1CCN(c2ccccn2)CC1 [CBK107310] | 97 |
| CN(C)CCN(C)C(=O)c1cc2cc(OC(F)(F)F)ccc2[nH]1 [CBK107316] | 91.5 |
| COc1ccc(Nc2cc(Cl)ccc2C(=O)N2CCN(c3ncccn3)CC2)cn1 [CBK107334] | 89.9 |
| O=C(Nc1cccnc1)c1cnc2cc(Cl)ccc2c1O [CBK107353] | 82.6 |
| CN(C)CC(C)(C)CNC(=O)c1cnc2cc(Cl)ccc2c1O [CBK107357] | 97 |
| CC(C)(N)CNC(=O)c1cnc2cc(Cl)ccc2c1O [CBK107360] | 101 |
| NCCNC(=O)c1cc2cc(OC(F)(F)F)ccc2[nH]1 [CBK107368] | 118 |
| O=C(Nc1ccncc1)c1cc2cc(OC(F)(F)F)ccc2[nH]1 [CBK107369] | 89.3 |
| CCCc1c(C(=O)N2CCN(C)CC2)cnn1-c1cc(Cl)cc(Cl)c1 [CBK107375] | 103 |
| CCCc1c(C(=O)NCC(C)(C)CN(C)C)cnn1-c1cc(Cl)cc(Cl)c1 [CBK107381] | 94.3 |
| Cc1c(C(=O)Nc2ccncc2)nnn1-c1cccc(C(F)(F)F)c1 [CBK107390] | 102 |
| Cc1c(C(=O)NCc2ccncc2)nnn1-c1cccc(C(F)(F)F)c1 [CBK107396] | 88.7 |
| CN(C)CC(C)(C)CNC(=O)c1cc(C(=O)c2ccc(Cl)cc2Cl)c[nH]1 [CBK107416] | 94.8 |
| O=C(c1c[nH]c(C(=O)N2CCN(c3ncccn3)CC2)c1)c1ccc(Cl)cc1Cl [CBK107418] | 89.4 |
| CN1CCN(NC(=O)c2cc(C(=O)c3ccc(Cl)cc3Cl)c[nH]2)CC1 [CBK107420] | 91.4 |
| CN1CCN(C(=O)c2cnc3cc(C(F)(F)F)ccc3c2O)CC1 [CBK107423] | 105 |
| CN(C)CC(C)(C)CNC(=O)c1cnc2cc(C(F)(F)F)ccc2c1O [CBK107427] | 97.9 |
| CC(C)(CN1CCOCC1)NC(=O)c1cnc2cc(C(F)(F)F)ccc2c1O [CBK107429] | 102 |
| COc1ccc(Nc2cc(Cl)ccc2C(=O)Nc2ccncc2)cn1 [CBK107434] | 96.3 |
| O=C(Nc1ccncc1)c1cnn(-c2ccc(Cl)cc2)c1C(F)(F)F [CBK107441] | 95.5 |
| O=C(Nc1ccc(OC(F)F)cc1)Nc1c(Br)cnc2cccnc12 [CBK107632] | 87.8 |
